Values joined by “and” are separate entries in the source; they are usually repeats but may differ in a detail not shown here. Equal values may be shown once. Read-outs that look alike come from different tables or passages of the source.
Columns and labels:
MAO = settings: cited from earlier work
[1] = design: method as in PMID 18305012; settings: applied i.p. to rats; cited from earlier work
hMAO = test: Type of inhibition from dilution experiments, both hMAO isoforms; type: biochemical, human; settings: dilution experiment, preincubation 10 × IC50, 100-fold dilution
Experimental: After preincubation probes were diluted 100-fold, measured at saturated substrate conditions and the remaining enzyme activity was compared to that of MAO preincubated without ciproxifan.
Reversibility of hMAO inhibition by ciproxifan was assessed by dilution experiments. […] The inhibitor volume represented one-tenth of the total preincubation volume. […] Enzymatic conversion rates were determined in the presence of kynuramine for hMAO A and benzylamine for hMAO B at saturating substrate concentrations (10 × KM) under potassium phosphate buffer conditions (50 mM, pH = 7.4).

r5-HT3 = molecular target: r5-HT3; design: method as in PMID 12606603; settings: rat; cited from earlier work
r5-HT2A = molecular target: r5-HT2A; design: method as in PMID 9808693; settings: rat tail; cited from earlier work
r5-HT4 = molecular target: r5-HT4; design: method as in PMID 9808693; settings: rat esophagus; cited from earlier work
hα2A = molecular target: hα2A; design: method as in PMID 12606603; settings: human; cited from earlier work
[2] = molecular target: human recombinant membrane-bound MAO A (Homo sapiens, UniProt P21397); test: Spectrophotometric IC50 determination, human MAO A; settings: IC50 hMAO A, substrate KYN
Sequence of human recombinant membrane-bound MAO A (P21397 whole entry): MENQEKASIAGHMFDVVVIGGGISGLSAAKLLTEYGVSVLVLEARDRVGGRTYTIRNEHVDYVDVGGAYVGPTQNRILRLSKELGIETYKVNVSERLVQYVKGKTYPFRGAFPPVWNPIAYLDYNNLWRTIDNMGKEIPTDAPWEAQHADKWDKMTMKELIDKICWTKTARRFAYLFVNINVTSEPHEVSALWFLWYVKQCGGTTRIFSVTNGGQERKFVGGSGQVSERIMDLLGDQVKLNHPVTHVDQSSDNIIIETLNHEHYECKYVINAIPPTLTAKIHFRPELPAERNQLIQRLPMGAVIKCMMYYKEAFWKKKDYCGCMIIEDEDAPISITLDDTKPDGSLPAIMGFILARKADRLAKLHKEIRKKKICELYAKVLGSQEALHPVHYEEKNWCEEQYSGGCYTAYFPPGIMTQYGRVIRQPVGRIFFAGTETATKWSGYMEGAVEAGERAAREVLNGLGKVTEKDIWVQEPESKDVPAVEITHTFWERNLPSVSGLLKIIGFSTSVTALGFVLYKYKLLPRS
Experimental: Enzyme studies were carried out using human recombinant membrane-bound MAO A and MAO B (Sigma-Aldrich, St. Louis, MO). […] For optimal enzyme activity all assays were carried out under potassium phosphate buffered conditions (50 mM, pH = 7.4). […] Data were analysed using GraphPad PRISM version 6. For IC50 determinations initial velocities for each experiment were normalized (expressed as percentage), plotted against inhibitor concentrations and fitted using the non-linear regression “log inhibitor vs. response (three parameters)”. IC50 values were determined in at least three independent experiments, each performed at least in duplicates.

hH2R = molecular target: hH2R; design: method as in PMID 12606603; settings: human; cited from earlier work
hH4R = molecular target: hH4R; design: method as in PMID 12606603; settings: human; cited from earlier work
gp5-HT3 = molecular target: gp5-HT3; design: method as in PMID 9808693; settings: guinea pig ileum; cited from earlier work
mH3R = molecular target: mH3R; design: method as in PMID 15341517; settings: mouse H3R; cited from earlier work
rα1D = molecular target: rα1D; design: method as in PMID 9808693; settings: rat aorta; cited from earlier work
gp M3 = molecular target: gp M3; design: method as in PMID 9808693; settings: guinea pig ileum; cited from earlier work
hH3R = molecular target: hH3R; design: method as in PMID 11090094, PMID 12606603, PMID 14660004; settings: human H3R; cited from earlier work
rat brain MAO A = molecular target: T1, rat brain MAO A (Rattus norvegicus, UniProt P21396); test: Radiometric IC50 determination, rat brain MAO A; type: biochemical; settings: substrate 5-HT, rat brain homogenate, read-out: IC50 rMAO A
T1 construct: the crude homogenates prepared from pooled brain from three rats were used; from tissue; host or cells: Wistar rat brain, crude homogenate
T1 sequence (P21396 whole entry): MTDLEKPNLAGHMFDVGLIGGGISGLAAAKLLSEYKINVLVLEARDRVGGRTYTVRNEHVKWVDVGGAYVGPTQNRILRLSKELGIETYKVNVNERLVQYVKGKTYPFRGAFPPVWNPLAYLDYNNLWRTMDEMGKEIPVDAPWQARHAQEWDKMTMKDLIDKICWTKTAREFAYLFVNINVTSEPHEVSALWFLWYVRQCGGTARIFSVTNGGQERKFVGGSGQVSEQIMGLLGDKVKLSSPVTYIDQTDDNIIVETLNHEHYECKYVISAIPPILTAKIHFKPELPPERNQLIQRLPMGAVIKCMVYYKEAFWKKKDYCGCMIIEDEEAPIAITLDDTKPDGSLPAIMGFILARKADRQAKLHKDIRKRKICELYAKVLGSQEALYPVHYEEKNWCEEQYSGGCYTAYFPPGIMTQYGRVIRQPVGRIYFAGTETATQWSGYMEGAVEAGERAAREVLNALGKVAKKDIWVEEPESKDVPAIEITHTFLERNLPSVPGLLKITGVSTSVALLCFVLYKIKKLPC
Experimental: (§1) The IC50 values of ciproxifan for rat brain MAO (rMAO) were obtained radiometrically using serotonin (5-HT) and phenylethylamine (PEA) as MAO A and MAO B substrates, respectively.
(§2) Wistar male rats were sacrificed, the brains were quickly excised from the skulls, cleaned of residual meninges and frozen on dry ice. For each experiment the crude homogenates prepared from pooled brain from three rats were used. Enzyme activity of MAO A or MAO B was measured using radioactive substrate (PerkinElmer/NEN): serotonin (5-[2-^14C]-hydroxytryptamine binoxalate) or β-[ethyl-1-^14C]-phenyl-ethyl-amine hydrochloride (PEA), respectively, with the procedure described by Fowler and Tipton 1981[25] with some modification according to Gómez et al.[26]. […] IC50 values were determined in three independent experiments, each performed in duplicates.

mkH3R = molecular target: mkH3R; design: method as in PMID 14660004; settings: monkey H3R; cited from earlier work
rodent H3R = test: Affinity at rodent H3R (discussion); type: binding; settings: rodent vs human H3R
rat brain MAO B = molecular target: T2, rat brain MAO B (Rattus norvegicus, UniProt P19643); test: Radiometric IC50 determination, rat brain MAO B; type: biochemical
T2 construct: the crude homogenates prepared from pooled brain from three rats were used; from tissue; host or cells: Wistar rat brain, crude homogenate
T2 sequence (P19643 whole entry): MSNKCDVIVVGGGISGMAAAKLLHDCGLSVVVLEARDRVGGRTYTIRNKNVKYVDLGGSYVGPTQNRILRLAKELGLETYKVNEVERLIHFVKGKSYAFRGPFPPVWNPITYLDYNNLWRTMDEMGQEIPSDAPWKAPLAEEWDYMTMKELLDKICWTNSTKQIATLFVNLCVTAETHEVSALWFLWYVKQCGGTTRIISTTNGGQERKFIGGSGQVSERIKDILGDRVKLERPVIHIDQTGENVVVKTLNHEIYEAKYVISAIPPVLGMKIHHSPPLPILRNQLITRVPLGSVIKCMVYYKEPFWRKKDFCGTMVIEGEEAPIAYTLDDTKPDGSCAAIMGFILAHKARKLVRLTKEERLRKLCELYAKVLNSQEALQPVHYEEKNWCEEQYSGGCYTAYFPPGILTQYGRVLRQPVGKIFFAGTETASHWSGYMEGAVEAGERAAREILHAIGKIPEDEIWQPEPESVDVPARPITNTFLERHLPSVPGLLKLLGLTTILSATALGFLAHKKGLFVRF
Experimental: as §1, §2

rH3R = settings: rat H3R; cited from earlier work
gpβ1 = molecular target: gpβ1; design: method as in PMID 9808693; settings: guinea pig atrium; cited from earlier work
r5-HT1 = molecular target: r5-HT1; design: method as in PMID 18683917; settings: rat; cited from earlier work
gp5-HT1B = molecular target: gp5-HT1B; design: method as in PMID 9808693; settings: guinea pig iliac; cited from earlier work
hα2C = molecular target: hα2C; design: method as in PMID 12606603; settings: human; cited from earlier work
hH1R = molecular target: hH1R; design: method as in PMID 12606603; settings: human; cited from earlier work
[3] = molecular target: T3, human recombinant membrane-bound MAO B (Homo sapiens, UniProt P27338); test: Spectrophotometric IC50 determination, human MAO B; type: biochemical; settings: for IC50: spectrophotometric, read-out: IC50 hMAO B
T3 construct: purchased Sigma-Aldrich
T3 sequence (P27338 1-520): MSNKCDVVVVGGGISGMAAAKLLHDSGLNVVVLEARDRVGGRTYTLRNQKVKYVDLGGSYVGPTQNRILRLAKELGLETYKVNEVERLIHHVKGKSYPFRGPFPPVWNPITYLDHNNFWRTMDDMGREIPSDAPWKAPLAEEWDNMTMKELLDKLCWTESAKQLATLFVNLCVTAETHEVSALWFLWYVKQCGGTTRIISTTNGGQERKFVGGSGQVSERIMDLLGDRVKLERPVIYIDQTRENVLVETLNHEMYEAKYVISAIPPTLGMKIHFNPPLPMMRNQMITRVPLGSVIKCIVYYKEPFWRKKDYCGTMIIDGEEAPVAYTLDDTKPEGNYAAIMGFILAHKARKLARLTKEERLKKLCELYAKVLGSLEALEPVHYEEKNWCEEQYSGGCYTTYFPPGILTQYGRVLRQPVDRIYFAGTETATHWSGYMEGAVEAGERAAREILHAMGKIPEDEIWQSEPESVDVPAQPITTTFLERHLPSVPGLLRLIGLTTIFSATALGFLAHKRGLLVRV

C#CCN(C)CCCOc1ccc(Cl)cc1Cl [Clorgyline]
Inhibition Type (MAO): Mixed/Irreversible[33]

C#CCN(C)[C@H](C)Cc1ccccc1 [L-Deprenyl]
Inhibition Type (MAO): Mixed/Irreversible[33]

O=C(c1ccc(OCCCc2cnc[nH]2)cc1)C1CC1 [Ciproxifan, cyclopropyl 4-(3-(1H-imidazol-4-yl)propyloxy)phenyl methanone]
brain concentrations [1]: ≤ 10 µM | Inhibition Type (hMAO): Reversible | Ki (r5-HT3): 0.302 µM | Ki (r5-HT2A): 15.8 µM | Ki (r5-HT4): > 2 µM | Ki (hα2A): 0.043 µM | IC50 [2]: 11 µM and 11.4 µM | Ki (hH2R): > 10 µM | Ki (hH4R): 1.86 µM | Ki (gp5-HT3): > 3.16 µM | Ki (mH3R): 0.0005 to 0.0008 µM | Ki (rα1D): 3.98 µM | Ki (gp M3): 3.16 µM | Ki (hH3R): 0.046 to 0.18 µM | IC50 (rat brain MAO A): 38 µM and 37.5 µM | Ki (mkH3R): 0.041 µM | Ki at rodent H3R, fold lower than at the human H3R (rodent H3R): 30- to 100 fold | IC50, MAO B/IC50, MAO A (rat brain MAO B; rat brain MAO): 0.4 | IC50 (rat brain MAO B; substrate PEA, radiometric, rat brain homogenate, read-out: IC50 rMAO B): 15 µM and 15.4 µM | Ki (rH3R): 0.0004 to 0.0062 µM | Ki (gpβ1): 12.6 µM | Ki (r5-HT1): 16.6 µM | Ki (gp5-HT1B): > 10 µM | Ki (hα2C): 0.063 µM | Ki (hH1R): > 10 µM | IC50, MAO B/IC50, MAO A ([3]; human MAO): 0.2 | preference for MAO B ([3]; human MAO B over MAO A): about 5 fold | IC50 ([3]; substrate BZA): 4.3 ± 0.7 µM | IC50 ([3]; substrate KYN): 2 µM and 2.1 µM

C[C@H](NCc1ccc(OCc2cccc(F)c2)cc1)C(N)=O [Safinamide]
Inhibition Type (MAO): Reversible[20]

O=C(NCCN1CCOCC1)c1ccc(Cl)cc1 [Moclobemide]
Inhibition Type (MAO): Reversible[32]
